The values below come from PMC3130785, “Small Compound 6-O-Angeloylplenolin Induces Mitotic Arrest and Exhibits Therapeutic Potentials in Multiple Myeloma” (PLoS ONE, 2011).

The subject of one assay is Bacillus subtilis. Also noted: method as in PMID 9461679, PMID 8657743, PMID 12521264. Conditions: cited from earlier work.
In another assay the test system is Staphylococcus aureus. Also noted: method as in PMID 9461679, PMID 8657743, PMID 12521264. Conditions: cited from earlier work.
The next assay deals with pERK1/2. Put plainly: Western blotting, 6-OAP/BOR. Particulars: MM.1S; BOR 3 nM for 12 to 24 h with 6-OAP 5 µM. In kind it is cell-based, human. How it is done:
Cell pellets were lysed in RIPA buffer containing 50 mM Tris pH 8.0, 150 mM NaCl, 0.1% SDS, 0.5% deoxycholate, 1% NP-40, 1 mM DTT, 1 mM NaF, 1 mM sodium vanadate, and protease inhibitors cocktail (Sigma). For immunoprecipitations, cells were lysed on ice for 15 minutes in RIPA buffer. Lysates were centrifuged. The supernatant was incubated with indicated antibodies overnight, after which protein A/G Plus beads (Santa Cruz Biotechnology) were added and incubated for 3 h. The beads were washed 4 times in RIPA buffer. Then the beads were resuspended in 1× sample buffer and boiled for 3 min. Protein extracts were quantitated and loaded on 8% to 12% sodium dodecyl sulfate polyacrylamide gel, electrophoresed, and transferred to a nitrocellulose membrane (Whatman). The membrane was incubated with primary antibody, washed, and incubated with horseradish peroxidase (HRP)–conjugated secondary antibody (Pierce). Detection was performed by using a chemiluminescent western detection kit (Cell Signaling). […]
In general terms: A western blot detects proteins with antibodies after separation by electrophoresis.

For another assay, the system named is MM.1R cells. In words: MTT assay, Dex with or without 6-OAP. Format: cell-based, human. Particulars: Dex 1 to 2 µM alone, 48 h, MTT. How it is done: U266, RPMI 8226 cells (1×10^4), primary CD138+ cells, PBMCs (5×10^4), and BMSCs (1×10^4) were cultured in 96-well dishes and incubated without or with 6-OAP at indicated concentration for 48 h. MM.1S and MM.1R cells (2×10^4) were seeded into 96-well dishes and pre-cultured for 24 h, then treated with 6-OAP for 48 h. Cell proliferation was determined by MTT assay. Cell viability was estimated by trypan blue dye exclusion.
Figure 4 6-OAP enhances cytotoxicity of Dox, Dex and BOR to MM cells. (A through C) MM.1S cells were treated for 48 h with Dox (A), Dex (B) or BOR (C) in the presence or absence of 6-OAP at 5 µM. MTT assay was used to test the proliferation of MM.1S cells. (D) MM.1R cells were treated for 48 h with Dex in the presence or absence of 6-OAP at 7.5 µM. MTT assay was used to test the proliferation of MM.1R cells. *p<.001,** p<.05. (E) MM.1S cells were cultured with control media (con), 6-OAP (O, 5 µM), BOR (B, 3 nM), or 6-OAP (5 µM) plus BOR (3 nM) (OB) for indicated time points. Cells were then lysed and subjected to Western blotting using indicated antibodies. CF, cleavage fragment.
A general note: Tetrazolium assays rely on reduction of a dye to a coloured formazan, in cell work by metabolically active cells.

On to `CC(C)C(=O)OC1C2C(CC(C)C3C=CC(=O)C31C)OC(=O)C2C` (stereo not drawn) [6-O-isobutyroylplenolin], for which the antibacterial activity entry in the assay on Bacillus subtilis and in the assay with Staphylococcus aureus was “exhibit antibacterial activity” throughout.
Regarding `C=C(C)C(=O)OC1C2C(CC(C)C3C=CC(=O)C31C)OC(=O)C2C` (stereo not drawn) [6-O-methylacrylylplenolin], the antibacterial activity result in the assay with Bacillus subtilis and with Staphylococcus aureus was “exhibit antibacterial activity” each time.
On to `CC(C)C[C@H](NC(=O)[C@H](Cc1ccccc1)NC(=O)c1cnccn1)B(O)O` [BOR, bortezomib, reference compound], for which the “6-OAP-induced pERK1/2 upregulation” value with pERK1/2 is reported as “dramatically inhibited 6-OAP-induced pERK1/2 upregulation”.
Consider `C[C@@H]1C[C@H]2[C@@H]3CCC4=CC(=O)C=C[C@]4(C)[C@@]3(F)[C@@H](O)C[C@]2(C)[C@@]1(O)C(=O)CO` [Dex, Dexamethasone, reference compound], for which the “inhibition of cell proliferation” value in the assay on MM.1R cells is listed as “slight inhibition rate”.
